ChEMBL document CHEMBL1201862, “PubChem BioAssay data set” (2004)
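Five compound concentrations were applied to cells in 96-well plates for 48 hours; endpoints were derived by simple linear interpolation of the resulting dose-response curve. At the GI50, growth is halved.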 The source made the active and inactive calls. Cut-off read from the data, not from the text of the source: active = GI50 up to about 1.1 µM and inactive = higher.

Columns and labels:
Assay in all cases: DTP human tumour cell line panel, 48 h
[1] = tested on: NCI-H23
[2] = tested on: BT-549
[3] = tested on: PC-3
[4] = tested on: SK-MEL-5
[5] = tested on: ACHN
[6] = tested on: MOLT-4
[7] = tested on: HT-29
[8] = tested on: SNB-75
[9] = tested on: HL-60
[10] = tested on: COLO 205
[11] = tested on: HOP-92
[12] = tested on: HCC 2998
[13] = tested on: 786-0
[14] = tested on: HCT-15
[15] = tested on: CCRF-CEM
[16] = tested on: RXF 393
[17] = tested on: MCF7
[18] = tested on: EKVX
[19] = tested on: K562
[20] = tested on: DMS-273

SMILES | GI50 [1] | GI50 [2] | GI50 [3] | GI50 [4] | GI50 [5] | GI50 [6] | GI50 [7] | GI50 [8] | GI50 [9] | GI50 [10] | GI50 [11] | GI50 [12] | GI50 [13] | GI50 [14] | GI50 [15] | GI50 [16] | GI50 [17] | GI50 [18] | GI50 [19] | GI50 [20]
O=C1c2ccccc2C(=O)N1CCCSc1ccccc1 | 86.7 µM (inactive) | > 100 µM (inactive) | 92 µM (inactive) | 32.7 µM (inactive) | > 100 µM (inactive) | 31.8 µM (inactive) | 31.2 µM (inactive) | 64.7 µM (inactive) | 75.7 µM (inactive) | 66.1 µM (inactive) | > 100 µM (inactive) | 25.1 µM (inactive) | > 100 µM (inactive) | 92.7 µM | 38.5 µM (inactive) | 63.7 µM (inactive) | 78.3 µM (inactive) | 57.1 µM (inactive) | 77.1 µM (inactive) | 
CN(C)c1ccc(/C(F)=C(F)/C(F)=C(F)/C(F)=C(\F)c2ccc(Br)cc2)cc1 | 14.8 µM (inactive) | 31.8 µM (inactive) | 15.2 µM (inactive) | 25.3 µM (inactive) | 52.8 µM (inactive) | 25.6 µM (inactive) | 27.5 µM (inactive) | 27.2 µM (inactive) | 8.97 µM (inactive) | 23.4 µM (inactive) | 47.6 µM (inactive) | 18.2 µM (inactive) | 3.92 µM (inactive) | 13.3 µM | 29.4 µM (inactive) | 9.2 µM (inactive) | 9.46 µM (inactive) | 22.9 µM (inactive) | 13.2 µM (inactive) | 
Cc1[nH]c2ccccc2c1-c1n[nH]c(=O)c2ccccc12 | 26 µM (inactive) |  |  | 15.5 µM (inactive) | 25.7 µM (inactive) | 20.5 µM (inactive) | 24.1 µM (inactive) | 15.3 µM (inactive) | 7.82 µM (inactive) |  |  | 30.4 µM (inactive) | 27 µM (inactive) | 5.33 µM | 22.9 µM (inactive) | 12.9 µM (inactive) |  | 17.9 µM (inactive) | 5.25 µM (inactive) | 8.79 µM (inactive)
O=C(Nn1c(-c2ccccc2)nc2ccccc2c1=O)c1cccc([N+](=O)[O-])c1 | 57.1 µM (inactive) | 32.3 µM (inactive) | 43.1 µM (inactive) | 37.6 µM (inactive) | 86.7 µM (inactive) | 39.9 µM (inactive) | 79.8 µM (inactive) | > 100 µM (inactive) | > 100 µM (inactive) | 54.3 µM (inactive) | 35.2 µM (inactive) | > 100 µM (inactive) | > 100 µM (inactive) | 55.7 µM | 52.5 µM (inactive) | > 100 µM (inactive) | 38 µM (inactive) | 57.9 µM (inactive) | > 100 µM (inactive) | 
CCC1CCCCN1CC(C(C)=O)C(c1ccccc1)c1c(O)c2ccccc2oc1=O (centres undefined) | > 100 µM (inactive) |  |  | > 100 µM (inactive) | > 100 µM (inactive) | > 100 µM (inactive) | > 100 µM (inactive) | 6.87 µM (inactive) | 76.4 µM (inactive) | 76.6 µM (inactive) |  |  | > 100 µM (inactive) | > 100 µM | > 100 µM (inactive) | > 100 µM (inactive) |  | > 100 µM (inactive) | > 100 µM (inactive) | > 100 µM (inactive)
CCOC(=O)/C=C1\CCCC12OCCO2 |  |  |  | > 100 µM (inactive) | > 100 µM (inactive) | 30.5 µM (inactive) |  | 77.3 µM (inactive) | > 100 µM (inactive) | > 100 µM (inactive) |  | > 100 µM (inactive) | > 100 µM (inactive) | > 100 µM | > 100 µM (inactive) | > 100 µM (inactive) |  |  | > 100 µM (inactive) | 53.5 µM (inactive)
N[C@@H]1c2c(Br)sc(Br)c2C(=O)[C@H]1Br | 24.8 µM (inactive) | 19.1 µM (inactive) | 37.2 µM (inactive) | 2.6 µM (inactive) | 20.6 µM (inactive) | 4.69 µM (inactive) | 21.7 µM (inactive) | > 100 µM (inactive) | 2.42 µM (inactive) | 1.88 µM (inactive) | 17.5 µM (inactive) | 31.3 µM (inactive) | 23.1 µM (inactive) | 25.1 µM | 2.02 µM (inactive) | 22.1 µM (inactive) | 36.7 µM (inactive) | 34.4 µM (inactive) | > 28.3 µM (inactive) | 
CC1CC[C@@]2(OC1)OC1C[C@H]3[C@@H]4CC=C5CC(OC6OC(CO)C(OC7OC(CO)C(O)C(OC8OCC(O)C(O)C8O)C7OC7OC(CO)C(O)C(O)C7O)C(O)C6O)CCC5(C)[C@H]4CCC3(C)C1[C@@H]2C (some centres undefined) | 5.64 µM (inactive) | 4.38 µM (inactive) | 4.06 µM (inactive) | 4.67 µM (inactive) | 4.97 µM (inactive) | 9.18 µM (inactive) | 5.08 µM (inactive) | 7.69 µM (inactive) | 4.9 µM (inactive) | 4.59 µM (inactive) | > 25 µM (inactive) | 4.68 µM (inactive) | 5.9 µM (inactive) | 14.9 µM | 5.16 µM (inactive) | 4.76 µM (inactive) | 6.3 µM (inactive) | 4.67 µM (inactive) | 7.23 µM (inactive) | 
O=C(O)c1nc(-c2ccccc2)ncc1-c1nnnn1-c1ccccc1 | > 100 µM (inactive) | > 100 µM (inactive) | > 100 µM (inactive) | > 100 µM (inactive) | > 100 µM (inactive) | > 100 µM (inactive) | > 100 µM (inactive) | > 100 µM (inactive) | > 100 µM (inactive) | > 100 µM (inactive) | > 100 µM (inactive) | > 100 µM (inactive) | > 100 µM (inactive) | > 100 µM | > 100 µM (inactive) | > 100 µM (inactive) | > 100 µM (inactive) | > 100 µM (inactive) | > 100 µM (inactive) | 
NC1CCC2(O)c3ccccc3C2C1 (centres undefined) | > 100 µM (inactive) |  |  | > 100 µM (inactive) | > 100 µM (inactive) | > 100 µM (inactive) | > 100 µM (inactive) | > 100 µM (inactive) | > 100 µM (inactive) | > 100 µM (inactive) |  |  | > 100 µM (inactive) | > 100 µM | > 100 µM (inactive) | > 100 µM (inactive) |  | > 100 µM (inactive) | > 100 µM (inactive) | > 100 µM (inactive)
COc1ccc(/C=C(/C(=O)c2ccc(Cl)cc2)N2C=CC=CC2=C(C#N)C#N)cc1OC | 11.5 µM (inactive) | 7.85 µM (inactive) | 2.74 µM (inactive) | 9.25 µM (inactive) | 3.31 µM (inactive) | 0.685 µM (active) | 5.01 µM (inactive) | 6.62 µM (inactive) | 2.37 µM (inactive) | 1.58 µM (inactive) | 3.51 µM (inactive) | 1.99 µM (inactive) | 1.94 µM (inactive) | 2.17 µM | 0.115 µM (active) | 2.03 µM (inactive) | 3.66 µM (inactive) | 2.75 µM (inactive) | 0.698 µM (active) | 
O=c1c2ccccc2[nH]c2cc(O)cc(O)c12 | 22.9 µM (inactive) |  |  | 19.1 µM (inactive) | 26.4 µM (inactive) | 34.2 µM (inactive) | 40.2 µM (inactive) | 47.9 µM (inactive) | > 100 µM (inactive) |  |  | 50.2 µM (inactive) |  | 55.6 µM | 49 µM (inactive) | > 100 µM (inactive) |  |  | 66.4 µM (inactive) | 35.1 µM (inactive)
